Where only a bound is given, the exact number is not on record here.

Test [1] has as its target T1, L-type calcium channel (LTCC) (Rattus norvegicus, UniProt P22002).
T1 construct: differentiated A7r5 cells were trypsinized, then seeded on tissue culture treated 96-well clear-bottom black plates; endogenous in cells; host or cells: A7r5 cells (ATCC), differentiated 8 days with dibutyryl cAMP
Description: FLIPR calcium mobilization assay for L-type calcium channel. Particulars: calcium mobilization in vitro assay, differentiated A7r5 cells. Type of test: cell-based. The procedure:
A7r5 (ATCC) cells were maintained and routinely cultured in A7r5 growth medium consisting of Dulbecco's Modified Eagles Medium containing 10% FBS, 100 U/mL penicillin, 100 μg/mL streptomycin, 4 mM L-glutamine, and 0.15% sodium bicarbonate. 80-90% confluent flasks of cells were differentiated using the following differentiation medium: A7r5 Growth Medium plus 1 mM dibutyryl cyclic AMP (Sigma). Cells were differentiated for 8 days by replacing differentiation medium every 2-3 days.
FLIPR Calcium Mobilization Assay for L-type Calcium Channel. One day prior to performing this assay, differentiated A7r5 cells were trypsinized, then seeded on tissue culture treated 96-well clear-bottom black plates (Becton Dickinson, Franklin Lakes, N.J.) at a dilution of 1:1 from a confluent T150 cm^2 flask. On the day of the assay, the plates were washed with A7r5 wash buffer (127 mM NaCl, 2 mM MgCl2, 700 μM NaH2PO4, 5 mM CaCl2, 5 mM NaHCO3, 8 mM HEPES, 10 mM glucose, pH 7.4), then loaded with 0.1 mL of A7r5 wash buffer containing Fluo-4 (3 μM final concentration, Molecular Probes, Eugene, Oreg.). After 1 hour, the cells were washed with 0.1 mL A7r5 wash buffer and resuspended in 0.05 mL A7r5 assay buffer that was composed of A7r5 wash buffer plus 50 μM valinomycin (Sigma). Plates were then transferred to a FLIPR^96 for assay. The FLIPR measured basal Fluo-4 fluorescence for 15 seconds, then added 0.05 mL of each compound tested diluted in A7r5 assay buffer at final concentrations ranging from about […]. Fluo-4 fluorescence was then measured for 5 minutes. 0.1 mL KCl agonist dissolved in A7r5 assay buffer was then added to the cells to produce a final concentration of 90 mM KCl, and fluorescence was measured for another 45 seconds. Data were collected over the entire time course and analyzed using Excel, Graph Pad Prism, or Activity Base software.
(Calcium flux is commonly read through the fluorescence of an indicator in the cells.)

In test [2] the target is T2, N-type calcium channel (NTCC) (Homo sapiens, UniProt Q00975).
T2 construct: endogenous in cells; host or cells: IMR32 cells (ATCC), differentiated 8 days with dibutyryl cAMP and bromodeoxyuridine
T2 sequence (Q00975 whole entry): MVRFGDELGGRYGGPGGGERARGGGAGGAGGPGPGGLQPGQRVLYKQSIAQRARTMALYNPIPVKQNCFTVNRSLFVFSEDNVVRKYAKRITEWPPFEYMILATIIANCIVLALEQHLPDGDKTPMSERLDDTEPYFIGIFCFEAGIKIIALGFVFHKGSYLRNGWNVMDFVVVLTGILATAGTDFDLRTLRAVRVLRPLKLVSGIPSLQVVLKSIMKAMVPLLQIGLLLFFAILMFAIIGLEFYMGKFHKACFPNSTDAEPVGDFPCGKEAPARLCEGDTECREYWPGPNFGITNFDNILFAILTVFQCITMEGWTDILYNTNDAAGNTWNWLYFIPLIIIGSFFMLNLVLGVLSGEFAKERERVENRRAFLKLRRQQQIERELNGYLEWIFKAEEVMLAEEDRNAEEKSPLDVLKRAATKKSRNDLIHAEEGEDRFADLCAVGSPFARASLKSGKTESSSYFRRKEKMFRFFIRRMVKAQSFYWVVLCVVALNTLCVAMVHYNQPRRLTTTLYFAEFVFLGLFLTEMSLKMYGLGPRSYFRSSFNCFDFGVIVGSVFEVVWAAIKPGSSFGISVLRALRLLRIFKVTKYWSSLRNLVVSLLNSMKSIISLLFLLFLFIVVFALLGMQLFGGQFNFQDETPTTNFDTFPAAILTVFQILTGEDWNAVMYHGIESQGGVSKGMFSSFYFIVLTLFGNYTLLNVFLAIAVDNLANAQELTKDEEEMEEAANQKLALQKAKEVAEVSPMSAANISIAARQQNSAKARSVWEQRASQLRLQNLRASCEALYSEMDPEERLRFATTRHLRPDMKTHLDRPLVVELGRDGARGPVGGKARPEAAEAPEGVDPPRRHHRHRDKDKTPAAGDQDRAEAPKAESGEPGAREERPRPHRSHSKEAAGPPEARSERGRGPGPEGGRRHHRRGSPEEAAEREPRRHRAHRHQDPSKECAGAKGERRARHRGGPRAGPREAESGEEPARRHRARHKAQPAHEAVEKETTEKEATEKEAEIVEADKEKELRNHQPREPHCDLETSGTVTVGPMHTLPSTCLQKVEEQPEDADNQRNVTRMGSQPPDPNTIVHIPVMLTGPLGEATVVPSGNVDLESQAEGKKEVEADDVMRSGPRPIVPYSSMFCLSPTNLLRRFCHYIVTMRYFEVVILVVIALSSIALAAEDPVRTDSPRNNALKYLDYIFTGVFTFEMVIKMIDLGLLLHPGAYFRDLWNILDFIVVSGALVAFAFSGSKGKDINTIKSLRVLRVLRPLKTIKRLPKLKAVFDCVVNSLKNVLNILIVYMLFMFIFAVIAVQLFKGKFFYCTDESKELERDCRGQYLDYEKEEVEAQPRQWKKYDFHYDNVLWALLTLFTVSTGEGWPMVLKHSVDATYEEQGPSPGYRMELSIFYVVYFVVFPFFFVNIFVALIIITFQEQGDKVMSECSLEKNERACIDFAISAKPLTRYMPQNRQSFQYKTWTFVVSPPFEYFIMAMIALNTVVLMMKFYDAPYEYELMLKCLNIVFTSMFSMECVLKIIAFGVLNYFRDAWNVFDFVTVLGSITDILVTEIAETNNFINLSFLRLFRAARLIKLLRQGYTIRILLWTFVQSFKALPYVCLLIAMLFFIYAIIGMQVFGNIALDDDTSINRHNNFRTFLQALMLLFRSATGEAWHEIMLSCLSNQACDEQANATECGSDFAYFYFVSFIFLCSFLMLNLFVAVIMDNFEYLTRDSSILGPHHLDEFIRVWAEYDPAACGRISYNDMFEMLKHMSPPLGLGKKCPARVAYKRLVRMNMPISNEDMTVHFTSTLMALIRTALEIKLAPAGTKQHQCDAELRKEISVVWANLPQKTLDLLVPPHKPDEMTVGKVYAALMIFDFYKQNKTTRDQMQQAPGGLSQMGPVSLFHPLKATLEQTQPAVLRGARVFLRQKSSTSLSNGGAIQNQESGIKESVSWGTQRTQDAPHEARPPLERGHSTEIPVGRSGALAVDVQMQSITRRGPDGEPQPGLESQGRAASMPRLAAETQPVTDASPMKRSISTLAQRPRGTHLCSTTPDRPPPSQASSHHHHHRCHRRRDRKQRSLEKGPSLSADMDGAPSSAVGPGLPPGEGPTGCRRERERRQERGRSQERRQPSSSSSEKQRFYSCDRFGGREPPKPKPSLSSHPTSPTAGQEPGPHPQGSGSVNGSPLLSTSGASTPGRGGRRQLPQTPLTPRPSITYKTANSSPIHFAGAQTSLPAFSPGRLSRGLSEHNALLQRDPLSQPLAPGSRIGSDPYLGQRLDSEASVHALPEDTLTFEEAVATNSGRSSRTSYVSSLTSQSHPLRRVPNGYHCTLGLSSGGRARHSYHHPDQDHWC
T2 sequence (P54284 whole entry partner): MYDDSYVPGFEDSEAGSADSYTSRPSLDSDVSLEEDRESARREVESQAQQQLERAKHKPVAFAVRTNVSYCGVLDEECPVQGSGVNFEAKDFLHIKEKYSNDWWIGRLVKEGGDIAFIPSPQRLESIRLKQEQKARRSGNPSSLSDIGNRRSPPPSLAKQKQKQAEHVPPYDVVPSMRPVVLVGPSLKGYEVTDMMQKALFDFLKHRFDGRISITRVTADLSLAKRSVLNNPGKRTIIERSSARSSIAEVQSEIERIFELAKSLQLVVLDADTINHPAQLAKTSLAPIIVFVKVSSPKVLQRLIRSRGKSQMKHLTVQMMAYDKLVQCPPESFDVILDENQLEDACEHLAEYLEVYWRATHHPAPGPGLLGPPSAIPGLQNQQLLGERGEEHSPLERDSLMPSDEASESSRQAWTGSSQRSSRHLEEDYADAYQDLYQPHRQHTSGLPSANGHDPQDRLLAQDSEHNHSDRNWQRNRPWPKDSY
T2 sequence (P54289 25-956 partner limits assumed): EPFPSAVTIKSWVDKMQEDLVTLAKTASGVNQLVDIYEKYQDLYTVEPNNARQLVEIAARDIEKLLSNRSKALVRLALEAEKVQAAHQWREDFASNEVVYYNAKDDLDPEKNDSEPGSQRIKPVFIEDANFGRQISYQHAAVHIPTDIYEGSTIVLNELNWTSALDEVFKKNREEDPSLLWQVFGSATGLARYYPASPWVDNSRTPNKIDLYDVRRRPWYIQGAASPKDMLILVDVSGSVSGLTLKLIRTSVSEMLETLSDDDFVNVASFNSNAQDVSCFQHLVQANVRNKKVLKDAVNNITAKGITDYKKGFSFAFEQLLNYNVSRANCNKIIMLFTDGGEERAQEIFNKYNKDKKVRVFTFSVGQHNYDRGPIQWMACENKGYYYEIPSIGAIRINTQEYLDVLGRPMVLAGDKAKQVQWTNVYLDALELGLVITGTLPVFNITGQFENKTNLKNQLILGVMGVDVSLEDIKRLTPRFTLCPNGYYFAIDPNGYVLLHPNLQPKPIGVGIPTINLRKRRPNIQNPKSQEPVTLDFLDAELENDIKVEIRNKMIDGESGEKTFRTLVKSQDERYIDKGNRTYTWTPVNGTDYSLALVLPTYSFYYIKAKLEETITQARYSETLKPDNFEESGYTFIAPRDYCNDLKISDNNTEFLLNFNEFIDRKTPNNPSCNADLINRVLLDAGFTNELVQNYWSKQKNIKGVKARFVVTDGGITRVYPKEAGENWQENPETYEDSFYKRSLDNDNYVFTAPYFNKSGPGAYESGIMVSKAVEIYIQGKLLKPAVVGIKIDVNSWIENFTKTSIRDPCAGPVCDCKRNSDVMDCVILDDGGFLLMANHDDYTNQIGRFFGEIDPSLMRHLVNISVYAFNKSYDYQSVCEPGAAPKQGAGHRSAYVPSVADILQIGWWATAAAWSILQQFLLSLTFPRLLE
T2 sequence (P54289 957-1103 partner limits assumed): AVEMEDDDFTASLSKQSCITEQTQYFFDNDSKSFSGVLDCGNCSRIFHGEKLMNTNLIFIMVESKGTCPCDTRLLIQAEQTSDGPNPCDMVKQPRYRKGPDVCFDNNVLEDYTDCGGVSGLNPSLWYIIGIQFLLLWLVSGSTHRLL
Description: FLIPR calcium mobilization assay for N-type calcium channel. It counts as cell-based. Conditions: calcium mobilization in vitro assay, differentiated IMR32 cells. Here is the method: Cell maintenance and differentiation. Unless noted otherwise, cell culture reagents were purchased from Life Technologies of Rockville, Md. IMR32 cells (American Type Culture Collection, ATCC, Manassas, Va.) were routinely cultured in growth medium consisting of minimum essential medium containing 10% fetal bovine serum (FBS, Hyclone, Logan, Utah), 100 U/mL penicillin, 100 μg/mL streptomycin, 2 mM L-glutamine, 1 mM sodium pyruvate, and 1×MEM non-essential amino acids. 80-90% confluent flasks of cells were differentiated using the following differentiation medium: Growth medium plus 1 mM dibutyryl cyclic AMP (Sigma, St. Louis, Mo.), and 2.5 μM bromodeoxyuridine (Sigma). Cells were differentiated for 8 days by replacing differentiation medium every 2-3 days.
FLIPR Calcium Mobilization Assay for N-type Calcium Channel. One day prior to performing this assay, differentiated IMR32 cells were treated with 1×CellStripper, and seeded on poly-D-lysine-coated 96-well clear-bottom black plates (Becton Dickinson, Franklin Lakes, N.J.) at 200,000 cells/well. On the day of the assay, the cell plates were washed with IMR32 buffer (127 mM NaCl, 1 mM KCl, 2 mM MgCl2, 700 μM NaH2PO4, 5 mM CaCl2, 5 mM NaHCO3, 8 mM HEPES, 10 mM glucose, pH 7.4), then pre-stimulated with KCl and loaded as follows: 0.05 mL of IMR32 buffer, 0.05 mL of each compound tested diluted in IMR32 buffer containing 20 μM nitrendipine (Sigma), and 0.1 mL KCl dissolved in IMR32 buffer, plus Fluo-4 were added (3 μM final concentration, Molecular Probes, Eugene, Oreg.). Final test compound concentrations ranged from about 846 μM to about 17 μM, final nitrendipine concentration was 5 μM, and final KCl concentration was 90 mM. After 1 hour, the cells were washed twice with 0.05 mL of each compound tested in nitrendipine-containing IMR32 buffer (no KCl or Fluo-4), and then replaced with 0.1 mL of each compound tested in nitrendipine-containing IMR32 buffer. Plates were then transferred to a Fluorimetric Imaging Plate Reader (FLIPR^96, Molecular Devices, Inc., Sunnyvale, Calif.) for assay. The FLIPR measured basal Fluo-4 fluorescence for 315 seconds (i.e., 5 minutes and 15 seconds), then added 0.1 mL KCl agonist dissolved in IMR32 buffer and measured fluorescence for another 45 seconds. Final test compound concentrations on the cells after FLIPR read ranged from about 846 μM to about 17 μM, final nitrendipine concentration was 5 μM, and final KCl concentration was 90 mM. Data were collected over the entire time course and analyzed using Excel, Graph Pad Prism (version 3.02, Graph Pad, San Diego, Calif.), or Activity Base (version 5.1, IDBS, Parsippany, N.J.) software.

Broadly, the IC50 is the concentration at which inhibition is half-maximal. On to `O=C1N(CCC(c2ccccc2)c2ccccc2)CCN1c1ccccc1` [1-(3,3-diphenylpropyl)-3-phenylimidazolidin-2-one], for which the IC50 is 10 to 20 µM in test [1] and 4.33 µM in test [2].

As for `O=c1n(CCCC(c2ccc(F)cc2)c2ccc(F)cc2)c2ccccc2n1Cc1ccccn1` [1-[4,4-Bis(4-fluorophenyl)butyl]-3-(pyridin-2-yl)methyl-1,3-dihydro-benzoimidazol-2-one], the IC50 amounted to 4.69 µM in test [1] and 0.81 µM in test [2].

Take `O=C1N(CCCC(c2ccc(F)cc2)c2ccc(F)cc2)CCN1Cc1ccncc1` [1-[4,4-Bis(4-fluorophenyl)butyl]-3-(pyridin-4-ylmethyl)imidazolidin-2-one]: the values for the IC50 in test [1] and in test [2] were 3.43 µM and 1.19 µM, respectively.

`O=c1n(CCCC(c2ccc(F)cc2)c2ccc(F)cc2)c2ccccc2n1CCN1CCCCC1` [1-[4,4-Bis(4-fluorophenyl)butyl]-3-[2-(piperidin-1-yl)ethyl]-1,3-dihydro-benzoimidazol-2-one]: the figures for the IC50 in test [1] and in test [2] were over 20 µM and 2.15 µM, respectively.

For the compound `O=C1NCCN1CCCC(c1ccc(F)cc1)c1ccc(F)cc1` [1-[4,4-Bis(4-fluorophenyl)butyl]-imidazolidin-2-one], the IC50 in test [2] is 3.69 µM.

In the case of `O=C1N(CC=Cc2ccccc2)CCN1CCCC(c1ccc(F)cc1)c1ccc(F)cc1` [1-[4,4-bis(4-fluorophenyl)butyl]-3-(3-phenylprop-2-enyl)imidazolidin-2-one], the IC50 came to 3.63 µM in test [1] and 1.14 µM in test [2].

On to `O=C1N(CCCC(c2ccc(F)cc2)c2ccc(F)cc2)CCN1CCN1CCCC1` [1-[4,4-bis(4-fluorophenyl)butyl]-3-[2-(pyrrolidin-1-yl)ethyl]imidazolidin-2-one], for which the IC50 in test [1] amounted to 3.56 µM; in test [2], 1.36 µM.

For the compound `O=C1N(CCCC(c2ccc(F)cc2)c2ccc(F)cc2)CCN1C1CC1` [1-[4,4-bis(4-fluorophenyl)butyl]-3-cyclopropylimidazolidin-2-one], the IC50 in test [1] came out at 0.41 µM; in test [2], 0.62 µM.

Regarding `CN1CCN(CCCC(c2ccc(F)cc2)c2ccc(F)cc2)C1=O` [1-[4,4-bis(4-fluorophenyl)butyl]-3-methylimidazolidin-2-one], the IC50 in test [1] was 0.79 µM; in test [2], 0.67 µM.

As to `O=C(OCc1ccccc1)N1C(=O)N(CCCC(c2ccc(F)cc2)c2ccc(F)cc2)[C@H]2C[C@H]21` [2-[4,4-Bis(4-fluorophenyl)butyl]-4-benzyloxycarbonyl-2,4-diaza-bicyclo[3.1.0]hexan-3-one], the IC50 in test [1] worked out at 3.29 µM; in test [2], 0.34 µM.

For the origin of these results see US8354434B2, “Cyclourea compounds as calcium channel blockers” (Purdue Pharma L.P., priority 2006, dated 2013).
